For series [1], the system named is Erysiphe graminis tritici (powdery mildew). In words: Plant pathology screen (Test 1), powdery mildew on wheat. To be noted: Blumeria graminis, in Triticum aestivum, foliar, read-out: POWD MDEW control rating.
Description: (§1) The test compounds were formulated for application by dissolving 50 mg of the compound into 1.25 ml of solvent. The solvent was prepared by mixing 50 ml of "Tween 20" (polyoxyethylene (20) sorbitan monolaurate emulsifier) with 475 ml of acetone and 475 ml of ethanol. The solvent/compound solution was diluted to 125 ml with deionized water. The resulting formulation contains 400 ppm test chemical. Lower concentrations were obtained by serial dilution with the solvent-surfactant mixture.
The formulated test compounds were applied by foliar spray.
(§2) The formulated technical compounds were sprayed on all foliar surfaces of the host plants (or cut berry) to past run-off. Single pots of each host plant were placed on raised, revolving pedestals in a fume hood. Test solutions were sprayed on all foliar surfaces. All treatments were allowed to dry and the plants were inoculated with the appropriate pathogens within 2-4 hours.
(§3) The effectiveness of test compounds in controlling disease was rated using the following scale.
The subject of series [2] is Pseudoperonospora cubensis (downy mildew). Put plainly: Plant pathology screen (Test 1), downy mildew on squash. To be noted: foliar, read-out: DOWN MDEW control rating.
Series [3] has as its system Southern corn rootworm (Diabrotica undecimpuctata howardi Barber). Put plainly: Mite/insect screen, corn rootworm. The format is in vivo. To be noted: soil; for mortality at 24 ppm / mortality at 12 ppm: Diabrotica, read-out: CRW results (percent mortality). Put shortly:
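Five 2-3 instar larvae per cup were placed on sandy soil (15 g, with presoaked corn seed) treated 6–12 h earlier with 1 mL test solution, an emulsified acetone/alcohol formulation diluted in water. Cups kept at 23° C; mortality and phytotoxicity assessed as percent after standard exposures.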

The test system of series [4] is southern armyworm (Spodopetra eridania Cramer). In words: Mite/insect screen, Southern armyworm. In kind it is in vivo. To be noted: sprayed leaves; for mortality at 400 ppm / mortality at 200 ppm: Spodoptera eridania, read-out: SAW results (percent mortality). In outline: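 Southern armyworm larvae placed in Petri dishes with two excised squash leaves that had been sprayed to runoff (10 psi) with emulsified compound and air-dried for 1 h. Mortality in percent recorded after a standard exposure period; formulation acetone/alcohol plus Toximul R and S, water-diluted.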

The subject of series [5] is melon aphids (Aphis gossvpii Glover). In words: Mite/insect screen, melon aphids. In kind it is in vivo. To be noted: sprayed leaves; for mortality at 400 ppm / mortality at 200 ppm: Aphis, read-out: MA results (percent mortality). Put shortly:
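Percent mortality of melon aphids was assessed after standard exposure periods. Infested squash cotyledons had been sprayed on both leaf surfaces until runoff at 10 psi with water-diluted test solutions. Compounds were formulated in acetone/alcohol (50:50) containing emulsifiers.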

Series [6] deals with Pyricularia oryzae (rice blast). In words: whole plant or invertebrate. To be noted: foliar, read-out: RICE BLAST control rating. The format is in vivo.
Series [7] has as its system Botrytis cinerea (gray mold). Put plainly: Plant pathology screen (Test 1), gray mold on grape berries. To be noted: read-out: GRAY MOLD control rating.
Description: This screen was used to evaluate the efficacy of the present compounds against a variety of different organisms that cause plant diseases.
as §1
The formulated test compounds were applied by foliar spray. The following plant pathogens and their corresponding plants were employed.
as §2, §3
The subject of series [8] is Twospotted spider mites (Tetranychus urticae Koch). In words: Mite/insect screen, twospotted spider mites. The format is in vivo. To be noted: sprayed leaves; for mortality at 400 ppm / mortality at 200 ppm: Tetranychus urticae, read-out: SM results (percent mortality). Put shortly: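 Percent mortality, along with phytotoxicity, was read after standard exposure periods. Beforehand, mites established on both surfaces of squash cotyledons received a runoff spray (10 psi) of water-diluted compound formulated in acetone/alcohol with sulfonate/nonionic emulsifiers.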

Series [9] deals with Puccinia recondita tritici (leaf rust). Put plainly: Plant pathology screen (Test 1), leaf rust on wheat. To be noted: in Triticum aestivum, foliar, read-out: LEAF RUST control rating.

One may read the mortality as the percentage killed.

In the case of `CCCCCCOc1ccc(CC(CNc2ncnc3oc(C)c(C)c23)c2cccc3ccccc23)cc1` (stereo not drawn) [Example 71, 5,6-dimethyl-N-[3-[4-(n-hexyloxy)phenyl]-2-(1-naphthyl)propyl]furo[2,3-d]pyrimidin-4-amine], the pest or weed control at 400 µg/mL in [1], in [2], in series [6], in series [7] and in series [9] was 0 to 19% in each case. In series [3] (CRW rate 24.00 ppm), the mortality at 24 ppm turned out to be 0%. Further, the mortality at 400 ppm in [4] (rate 400 ppm), in series [5] (rate 400 ppm) and in series [8] (rate 400 ppm) was 0% throughout.

Take `Cc1oc2ncnc(OCCc3ccc(Cl)cc3)c2c1C` [Example 53, 4-[2-(4-chlorophenyl)ethoxy]-5,6-dimethylfuro[2,3-d]pyrimidine]: the pest or weed control at 400 µg/mL in series [1] is 20 to 89%; in [2] it was 0 to 19%; in series [6] it was 20 to 89%; in [7], 0 to 19%; in series [9], 90 to 100%. Moreover, the mortality at 12 ppm in series [3] (CRW rate 12.00 ppm) is 0%. In series [3] (CRW rate 24.00 ppm), the mortality at 24 ppm is 0%. The mortality at 200 ppm in series [4] (rate 200 ppm), in series [5] (rate 200 ppm) and in series [8] (rate 200 ppm) was 0% throughout. The mortality at 400 ppm in series [4] (rate 400 ppm) came out at 0%; in series [5] (rate 400 ppm) it was 60%; in series [8] (rate 400 ppm), 30%.

`Cc1oc2ncnc(OCCN3C[C@@H](C)O[C@@H](C)C3)c2c1C` [Example 57, Cis-5,6-dimethyl-4-[2-(2,6-dimethyl-4-morpholinyl)ethoxy]furo[2,3-d]pyrimidine]: the pest or weed control at 400 µg/mL was in the range of 0 to 19% in [1]; 20 to 89% in [2]; 0 to 19% in series [6]; 0 to 19% in series [7]; 0 to 19% in series [9]. For the same compound, the “CRW results (percent mortality)” value in [3] (CRW rate 12.00 ppm) and in series [3] (CRW rate 24.00 ppm) was 0% each time. Also, the mortality at 12 ppm in [3] (CRW rate 12.00 ppm) came to 0%. The mortality at 24 ppm in [3] (CRW rate 24.00 ppm) was found to be 0%. Also, the mortality at 200 ppm in [4] (rate 200 ppm), in series [5] (rate 200 ppm) and in series [8] (rate 200 ppm) was 0% throughout. Moreover, the mortality at 400 ppm in series [4] (rate 400 ppm), in series [5] (rate 400 ppm) and in [8] (rate 400 ppm) was 0% in each case. For the same compound, the “SAW results (percent mortality)” value in series [4] (rate 200 ppm) and in series [4] (rate 400 ppm) was 0% in each case. Moreover, the “MA results (percent mortality)” value in series [5] (rate 200 ppm) and in [5] (rate 400 ppm) was 0% each time. Besides, the “SM results (percent mortality)” value in [8] (rate 200 ppm) and in series [8] (rate 400 ppm) was 0% throughout.

`COc1ccc(CCOc2ncnc3oc(C)c(C)c23)cc1` [Example 52, 4-[2-(4-methoxyphenyl)ethoxy]-5,6-dimethylfuro[2,3-d]pyrimidine]: the pest or weed control at 400 µg/mL in series [1] lay in the range of 90 to 100%; in series [2], 90 to 100%; in [6], 90 to 100%; in [7], 0 to 19%; in series [9], 90 to 100%. In [3] (CRW rate 12.00 ppm), the mortality at 12 ppm is 0%. Moreover, the mortality at 24 ppm in series [3] (CRW rate 24.00 ppm) is 0%. The mortality at 200 ppm in [4] (rate 200 ppm) came to 0%; in series [5] (rate 200 ppm), 80%; in series [8] (rate 200 ppm), 0%. Also, the mortality at 400 ppm in series [4] (rate 400 ppm) is 0%; in [5] (rate 400 ppm), 100%; in [8] (rate 400 ppm), 0%.

Take `Cc1oc2ncnc(NCCc3ccc(OC(F)(F)F)cc3)c2c1C` [Example 68, 5,6-dimethyl-N-[2-[4-(trifluoromethoxy)phenyl]ethyl]furo[2,3-d]pyrimidin-4-amine]: the pest or weed control at 400 µg/mL in series [1] lay within 20 to 89%; in [2], 90 to 100%; in series [6] it was 90 to 100%; in series [7] it was 0 to 19%; in [9] it was 20 to 89%. In [3] (CRW rate 24.00 ppm), the mortality at 24 ppm was found to be 0%. In addition, the mortality at 400 ppm in series [4] (rate 400 ppm) amounted to 100%; in [5] (rate 400 ppm), 90%; in [8] (rate 400 ppm) it was 30%.

Regarding `Cc1ccc(CCNc2ncnc3occ(C)c23)cc1` [Example 48, 5-methyl-N-[2-(4-methylphenyl)ethyl]furo[2,3-d]pyrimidin-4-amine], the pest or weed control at 400 µg/mL in series [1] was in the range of 90 to 100%; in series [2], 90 to 100%; in [6] it was 90 to 100%; in [7], 0 to 19%; in series [9], 90 to 100%. Also, in series [3] (CRW rate 12.00 ppm), the mortality at 12 ppm worked out at 60%. Moreover, the mortality at 24 ppm in series [3] (CRW rate 24.00 ppm) came out at 100%. For the same compound, the mortality at 200 ppm in [4] (rate 200 ppm), in [5] (rate 200 ppm) and in [8] (rate 200 ppm) was 0% each time. Also, the results for the mortality at 400 ppm in series [4] (rate 400 ppm), in series [5] (rate 400 ppm) and in series [8] (rate 400 ppm) were 0%, 80% and 0%, respectively.

As for `Cc1oc2ncnc(Oc3ccccc3F)c2c1C` [Example 66, 4-(2-fluorophenoxy)-5,6-dimethylfuro[2,3-d]pyrimidine], the pest or weed control at 400 µg/mL in series [1] lay in the range of 90 to 100%; in series [2], 90 to 100%; in series [6], 0 to 19%; in series [7] it was 0 to 19%; in series [9], 20 to 89%. For the same compound, the mortality at 12 ppm in [3] (CRW rate 12.00 ppm) stood at 0%. Also, in series [3] (CRW rate 24.00 ppm), the mortality at 24 ppm is 0%. In addition, the mortality at 200 ppm in series [4] (rate 200 ppm), in series [5] (rate 200 ppm) and in series [8] (rate 200 ppm) was 0% each time. Further, the mortality at 400 ppm in [4] (rate 400 ppm), in series [5] (rate 400 ppm) and in series [8] (rate 400 ppm) was 0% in each case.

In the case of `Cc1oc2ncnc(Sc3ccc(F)cc3)c2c1C` [Example 56, 5,6-dimethyl-4-[(4-fluorophenyl)thio]furo[2,3-d]pyrimidine], the pest or weed control at 400 µg/mL in series [1] fell in the range of 20 to 89%; in [2], 0 to 19%; in [6] it was 20 to 89%; in series [7] it was 0 to 19%; in series [9] it was 20 to 89%. Besides, the mortality at 12 ppm in [3] (CRW rate 12.00 ppm) worked out at 0%. For the same compound, the mortality at 24 ppm in series [3] (CRW rate 24.00 ppm) stood at 0%. Further, the mortality at 200 ppm in series [4] (rate 200 ppm), in [5] (rate 200 ppm) and in series [8] (rate 200 ppm) was 0% each time. For the same compound, the mortality at 400 ppm in [4] (rate 400 ppm), in series [5] (rate 400 ppm) and in [8] (rate 400 ppm) was 0% each time.

`Cc1oc2ncnc(NCCc3ccc(Cl)cc3)c2c1C` [Example 10, N-(2-(4-chlorophenyl)ethyl]-5,6-dimethylfuro[2,3-d]pyrimidin-4-amine]: the pest or weed control at 400 µg/mL is 0 to 19% in [1]; 20 to 89% in series [2]; 90 to 100% in [6]; 0 to 19% in [7]; 20 to 89% in [9]. For the same compound, the mortality at 12 ppm in series [3] (CRW rate 12.00 ppm) amounted to 0%. Moreover, the mortality at 24 ppm in series [3] (CRW rate 24.00 ppm) was 0%. For the same compound, the mortality at 200 ppm in [4] (rate 200 ppm), in series [5] (rate 200 ppm) and in [8] (rate 200 ppm) was 0% throughout. Besides, the mortality at 400 ppm in series [4] (rate 400 ppm), in series [5] (rate 400 ppm) and in series [8] (rate 400 ppm) was 0% throughout.

For the origin of these results see patent US5486516A, “Furopyrimidine derivatives” (DowElanco, priority 1993, dated 1996).
